The results in this text go back to paper PMC2532997, “Methoxylation enhances stilbene bioactivity in Caenorhabditis elegans” (BMC Pharmacology, 2008).

SMILES strings stand for the structures.

In assay [1] the test system is C. elegans fem-1(hc17) sterile adults. Kind of assay: Adult survival assay of sterile fem-1(hc17) adults on compound-supplemented medium. Type of assay: in vivo, Caenorhabditis elegans. The protocol: For survival assays, young adult (day 0) animals were transferred onto fresh medium supplemented with the test compound at a range of concentrations. The compounds were tested at indicated concentrations in the growth medium (below). C. elegans nematodes are surrounded by a thick collagenous cuticle and are therefore relatively impermeable to environmental compounds. […] Survival was scored every 2–3 days as the ability to move in response to a gentle mechanical stimulus. During the first week of adulthood, C. elegans hermaphrodites are reproductively competent and normally produce 200–300 progeny. Since progeny production would complicate survival analysis, these experiments were performed using fem-1(hc17) animals that are sterile due to a spermatogenesis defect.
Resveratrol and picetannol were obtained from commercial sources (Sigma-Aldrich, Inc. and Calbiochem-Novobiochem Corp., respectively). The methoxylated stilbenes pinostilbene, desoxyrhapontigenin, 3-hydroxy-5,4'-dimethoxystilbene and pterostilbene (Figure 1) were synthesized by partial methylation of trans-resveratrol as previously reported. The methoxylated stilbenes were purified by preparative layer chromatography (Merck Silica gel 60 F254; EMD Chemicals Inc., Gibbstown, NJ) using the developing solvent chloroform:methanol (96:4) with 1% formic acid. […] These stilbenes were identified from their ^1H-NMR spectra (Bruker 400 MHz; Bruker, Billerica, MA). All stilbenes were dissolved in ethanol to 25 mg/mL before use. 5-Fluoro-deoxyuracil (Sigma Chemical Co.) was dissolved to 1 mg/mL in sterile water and stored frozen at -20°C until use. For treating C. elegans adults, each compound was added in a 200 μL volume to the top of a 1-day old bacterial lawn grown on NGM medium to final concentrations as indicated. Compounds were allowed 2 hours to diffuse through the agar medium before animals were added.
For survival analyses, synchronized populations of sterile fem-1(hc17) hermaphrodites were obtained by first transferring several fertile hermaphrodites to a fresh plate at 25°C and allowing them to lay eggs for several hours. The parent hermaphrodites were removed and embryos were allowed to develop into sterile adults at 25°C, which takes approximately 48 hours. On the first day of adulthood, referred to as day 0, sterile adults were transferred onto fresh media supplemented with stilbenes at indicated concentrations, and maintained at 25°C. Adult survival was scored every 2–3 days by the animal's ability to move in response to a gentle mechanical stimulus. Statistical analysis of survival was performed using the JMP software package.

The subject of assay [2] is gld-1(q485) germline tumors. Kind of assay: Germline tumor growth assay (DAPI-stained tumor area). The assay is classed as in vivo, Caenorhabditis elegans. To be noted: 100 μM dose, four days treatment. The protocol: To assess the effects of methoxylation on antitumor activity in vivo, tumor area was measured in gld-1(q485) adults treated for four days with either resveratrol trimethylether, desoxyrhapontigenin or pterostilbene, which are methoxylated and toxic to adults, or resveratrol, which is hydroxylated and nontoxic. As controls, germline tumor area was also measured in animals treated with carrier only (ethanol) or with 5-fluoro-2'-deoxyuradine (FUDR), a thymidylate synthetase inhibitor that blocks cell proliferation. […] After four days of treatment, animals were collected and germline tumors were visualized by DAPI staining to visualize germcell nuclei. Because the level of DAPI staining was not quantitative between animals, we DAPI signal intensity was not used as a measure of tumor size. Rather, tumor size was directly measured as the area of the DAPI-stained gonad.
Resveratrol and picetannol were obtained from commercial sources (Sigma-Aldrich, Inc. and Calbiochem-Novobiochem Corp., respectively). The methoxylated stilbenes pinostilbene, desoxyrhapontigenin, 3-hydroxy-5,4'-dimethoxystilbene and pterostilbene (Figure 1) were synthesized by partial methylation of trans-resveratrol as previously reported. The methoxylated stilbenes were purified by preparative layer chromatography (Merck Silica gel 60 F254; EMD Chemicals Inc., Gibbstown, NJ) using the developing solvent chloroform:methanol (96:4) with 1% formic acid. The Rf values for pterostilbene, 3-hydroxy-5,4'-dimethoxystilbene, pinostilbene and desoxyrhapontigenin are 0.61, 0.57, 0.28, and 0.20, respectively. These stilbenes were identified from their ^1H-NMR spectra (Bruker 400 MHz; Bruker, Billerica, MA). All stilbenes were dissolved in ethanol to 25 mg/mL before use. 5-Fluoro-deoxyuracil (Sigma Chemical Co.) was dissolved to 1 mg/mL in sterile water and stored frozen at -20°C until use. For treating C. elegans adults, each compound was added in a 200 μL volume to the top of a 1-day old bacterial lawn grown on NGM medium to final concentrations as indicated. Compounds were allowed 2 hours to diffuse through the agar medium before animals were added.
The gld-1(q485) mutation causes a defect in oocyte development that results in growth of germline tumors that fill the somatic gonad, eventually leading to the animal's death. To examine the effects of the stilbenes on gld-1(q485) germline tumors, day 0 adults were placed on stilbene-containing medium in the presence of OP50 bacteria as food source. After 4 days at 20°C, animals were fixed in methanol and germcell nuclei were visualized by staining with DAPI. Images were collected with the entire animal in view using the 4× objective on a Nikon E800 microscope equipped with a Hamamatsu Orca ER CCD camera using OpenLab imaging software. NIH Image J software was used to measure germline tumor growth in treated and untreated animals. Tumor area was measured by outlining the entire DAPI-stained tumor.

For the compound `COc1ccc(/C=C/c2cc(OC)cc(OC)c2)cc1` [Resveratrol-trimethylether, resveratrol-trimethylether], the “Mean lifespan, Treated” value in assay [1] (Trial 1, 100 μM in medium, from day 0 of adulthood, 25°C, control 12.16 days) is recorded as 9.7 days; in assay [1] (Trial 4, 20 μM, control 11.26 days) it was 7.72 days; in assay [1] (Trial 4, 40 μM, control 11.26 days) it was 7.72 days; in assay [1] (Trial 4, 100 μM, control 11.26 days), 7.18 days; in assay [1] (Trial 5, 5 μM, control 18.49 days) it was 18.83 days; in assay [1] (Trial 5, 20 μM, control 18.49 days) it was 16.41 days. The “Mean lifespan, Treated” value in assay [1] (Trial 5, 100 μM, control 18.49 days) is 15.18 days; in assay [1] (Trial 6, 20 μM, control 15.32 days) it was 9.02 days; in assay [1] (Trial 6, 40 μM, control 15.32 days), 7.98 days; in assay [1] (Trial 6, 100 μM, control 15.32 days), 7.54 days. In addition, the Relative survival in assay [1] (Trial 1, 100 μM, treated vs control mean lifespan) was determined as 80%; in assay [1] (Trial 4, 20 μM), 69%; in assay [1] (Trial 4, 40 μM) it was 69%; in assay [1] (Trial 4, 100 μM), 64%; in assay [1] (Trial 5, 5 μM), 102%; in assay [1] (Trial 5, 20 μM), 89%. Also, the Relative survival in assay [1] (Trial 5, 100 μM) was determined as 82%; in assay [1] (Trial 6, 20 μM), 59%; in assay [1] (Trial 6, 40 μM), 52%; in assay [1] (Trial 6, 100 μM), 49%. Also, in assay [2], the “effect on tumor size (in words)” value is “consistent reductions in tumor size”.
